We go through two molecules from patent publication US20100152225A1, “HYDROGENATED PYRIDO [4,3-B] INDOLES SUCH AS DIMEBON FOR TREATING CANINE COGNITIVE DYSFUNCTION SYNDROME” (priority 2006, published 2010).

“Also recorded” adds a separate entry of the source.

The test system of data set [1] is dogs. The following applies: dogs with CCDS; reported in FDA Consumer Magazine 2000; cited from earlier work.
Data set [2] deals with Beagle Dogs. As to the kind of experiment: General Activity Test (Actiwatch post-dose activity). Format: in vivo, Canine. The following applies: for activity as a function of dose and treatment day: FIG. 2, suggestion of a drug effect. How it is done: (§1) Dogs were weighed prior to study initiation. Capsules containing dimebon were prepared for each dog according to weight. The following doses of dimebon were used: 2, 6 and 20 mg/kg. Technicians not otherwise involved in the study prepared the capsules. During the control phase of the study, subjects were administered empty gelatine capsules. The test and control articles were administered to the dogs PO within meatballs of moist dog food once daily. Individual subjects were administered the capsule at the same time on each treatment day.
(§2) The design of the study consisted of four 7 day test blocks (a test block refers to the 3 day washout period combined with the 4 day treatment/testing period). The first test block was a control and no subject received treatment during those seven days. Subsequently, the study then followed a Latin-square design, in which all of the subjects were tested at all the three dose levels of the test article in a different order (see Table 3 below). To accomplish this, the twelve subjects were divided into six groups of two subjects balanced for sex and age to the extent possible.
At the start of the study, an Actiwatch collar was placed on each dog and the collar remained on for the study duration of the study. All behavioral testing followed previously established protocols. For behavioral tests conducted in the open field arena, data analyses were conducted using the DogAct behavioral software (CanCog Technologies Inc., Toronto, ON, Canada). Actiware-Rhythm® software was used to obtain activity counts for the day-night measure.
The Actiwatch data were analyzed to look at both changes in activity pattern temporally linked to treatment and changes in day/night activity.
(§3) To assess changes in activity linked to the treatment condition, hourly activity over a five hour period after dosing was calculated. The data were then analyzed with a repeated measures analysis of variance (ANOVA), with time post dosing (1-5 hours), treatment days (1-4 for each condition) and dose (control, 2, 6, and 20 mg/kg) as within subject variables. Test order served as a between subject variable in the initial analysis. To examine day night-activity levels, day and night activity levels were calculated for each 24-hr period. The data were first analyzed with a repeated measures ANOVA, with dose (control, 2, 6, and 20 mg/kg), treatment day (1-4 for each condition), and phase (day and night) as within-subject variables. Once again order served as a between-subject variable.
Post-dose activity patterns and twenty-four hour activity rhythms were assessed using the Actiwatch method, which detects alterations in activity and changes in phase of the activity cycle as described previously (Siwak et al. (2003) Circadian Activity Rhythms in Dogs Vary with Age and Cognitive Status. Behavioral Neuroscience, 111:813-824). Briefly, general activity patterns were monitored for 28 continuous days using the Mini-Mitter® Actiwatch-16® activity monitoring system (Mini-Mitter Co., Inc., Bend, Oreg.) adapted for dogs. The Actiwatch contained an activity sensory that was programmed to provide counts of total activity at 5 minute intervals. Putting the Actiwatch on a dog's collar allowed for recording uninterrupted patterns of activity and rest.
The first analysis of the Actiwatch data was intended to provide an overall picture of the post-dosing effect of the compound on behavioral activity. Accordingly, data for the 5-hour period following dosing was first segregated into 5 one-hour blocks. Thus, each subject's data for each treatment day consisted of 5 consecutive one-hour activity scores. The data were then analyzed with a repeated measures analysis of variance, with time post dosing (1-5 hours), treatment days (1-4 for each condition) and dose (control, 2, 6, and 20 mg/kg) as within subject variables. Test order served as between subject variables in the initial analysis. […]

Data set [3] has as its system Beagle Dogs. As to the kind of experiment: Day Night Activity (Actiwatch day-night activity rhythms). It is filed as in vivo, Canine. How it is done: as §1, §2
At the start of the study, an Actiwatch collar was placed on each dog and the collar remained on for the study duration of the study. All behavioral testing followed previously established protocols. […]
as §3, with “Test order served as a between subject variable in the initial analysis.” left out, “Once again order served as a between-subject variable.” left out
Post-dose activity patterns and twenty-four hour activity rhythms were assessed using the Actiwatch method, which detects alterations in activity and changes in phase of the activity cycle as described previously (Siwak et al. (2003) Circadian Activity Rhythms in Dogs Vary with Age and Cognitive Status. Behavioral Neuroscience, 111:813-824). Briefly, general activity patterns were monitored for 28 continuous days using the Mini-Mitter® Actiwatch-16® activity monitoring system (Mini-Mitter Co., Inc., Bend, Oreg.) adapted for dogs. […]
The day/night activity data were analyzed with a repeated-measures ANOVA, with dose, wash-in day, and phase as within-subject variables and test order as a between-subject variable.

Data set [4] relates to Beagle Dogs. As to the kind of experiment: Curiosity Test (exploratory behavior, open-field arena). It is filed as in vivo, Canine. Particulars: for rearing frequency, controls versus dose group: FIG. 10. How it is done:
as §1, §2
After completing the control test block, each group received three doses of the test article in the order prescribed for that group. For each test block, subjects received their respective treatment for the first four days. On the fourth day of each test block, subjects were tested on the curiosity test twice; the first was one hour after article administration and the second was four hours after article administration. The remaining three days were considered washout days for each test block (Table 4).
For the curiosity test, each behavioral measure was analyzed individually using a repeated measures ANOVA with dose (control, 2, 6, and 20 mg/kg), test (first and second) as within-subject variables and order as a between-subject variable.
This is a test of exploratory behavior, which assesses both attention to environment and locomotor activity (Siwak et al. (2001) Effect of Age and Level of Cognitive Function on Spontaneous and Exploratory Behaviors in the Beagle Dog. Learning and Memory, 8:[…].). Subjects were placed in the open-field arena for a 10-minute period. Seven objects were placed in the arena and the subjects were permitted to freely explore the room and the objects.
The open field activity arena consisted of an empty test room (approximately 8′×10′) with strips of electrical tape applied to the floor in a grid pattern of rectangles to facilitate tracking. The floor of the test room was mopped prior to testing and between dogs to reduce olfactory cues from affecting testing. For tests conducted in the open field, the dogs were placed in the test room and their behavior was videotaped over a 10-minute period. On two of the test sessions, subjects were tested for 5 rather than 10 minutes. Accordingly, the data from those two dogs were not included in the initial analysis, which was carried out over all dose levels. However, all dogs were tested on the control and 20 mg/kg dose and a separate analysis was carried out comparing control and high dose treatments.
The movement pattern of the dog within the test room was recorded. In addition, keyboard keys were pressed to indicate the frequency of occurrence of the various behaviors including: sniffing, urinating, grooming, jumping, rearing, inactivity and vocalization. The software also provided a total measure of distance for loco-motor activity.
In addition to general activity, the interactions with the objects (picking-up, contacting, sniffing and urinating on the objects) were assessed and used as measures of exploratory behavior.

Data set [5] deals with Beagle Dogs. As to the kind of experiment: Observation of abnormal behavioral responses / behavioral toxicity during study. Format: in vivo, Canine. The following applies: 2, 6 and 20 mg/kg. From the text:
All dogs received veterinary examinations prior to initiation in the study. Over the course of the study, trained personnel recorded all adverse events and contacted the responsible veterinarian or study director when necessary.
The effect also appeared dependent on baseline activity level, the greater the baseline level the smaller the treatment effect.

Where [6] appears, read: 2, 6 and 20 mg/kg, dihydrochloride.

Turning to `C#CCN(C)[C@H](C)Cc1ccccc1` [Anipryl®], in data set [1], the “fraction of cases in which it does not work” value is recorded as “about ⅓”.
Consider `Cc1ccc2c(c1)c1c(n2CCc2ccc(C)nc2)CCN(C)C1.Cl.Cl` [dimebon, 2,8-dimethyl-5-(2-(6-methyl-3-pyridyl)-ethyl)-2,3,4,5-tetrahydro-1H-pyrido(4,3-b)indole dihydrochloride], for which the “activity at 5 hours post-dosing compared to control” value in data set [2] (6 mg/kg PO once daily, FIG. 1) is recorded as “generally higher”; in data set [2] (20 mg/kg PO once daily, FIG. 1) it was “generally higher”. The “activity as a function of dose and treatment day” value in data set [2] (6 mg/kg) and in data set [2] (20 mg/kg) was “increased activity” in each case. For the same molecule, the “behavioral activity (summary)” value in data set [2] (setting [6]) is on record as “trend towards an increase in activity with an increase in dosage; also recorded: moderate increase in behavioral activity”. For the same molecule, the “total activity as a function of dose” value in data set [2] (control, 2, 6, 20 mg/kg, FIG. 3, not statistically significant, p=0.192360) is on record as “dose-dependent increase in activity”. The “decrease of activity with time following treatment” value in data set [2] (two highest dose levels, FIG. 1) is reported as “the decrease is smaller”. Further, the “ratio of day time activity to night time activity” value in data set [3] (2 mg/kg, FIG. 6, did not achieve statistical significance) is “highest”. The “day:night activity ratio” value in data set [3] (20 mg/kg) was “not altered”. The night time activity entry in data set [3] (20 mg/kg) is “increased night time activity”. In data set [3] (control, 2, 6, 20 mg/kg, did not achieve statistical significance, p=0.158556), the “day/night activity as a function of dose” value is recorded as “overall dose-dependent increase in activity”. In addition, the figures for the “change of rearing frequency over the two tests” value in data set [4] (2 mg/kg), in data set [4] (6 mg/kg) and in data set [4] (20 mg/kg) were “decrease in rearing frequency”, “rearing frequency increased over the two tests” and “rearing frequency increased over the two tests”, respectively. In addition, in data set [4] (2 mg/kg, p=0.085660, FIG. 14), the “object sniff frequency compared to control” value is “lower occurrence of object sniffing”. Also, the exploratory behavior entry in data set [4] (20 mg/kg) is “increase in exploratory behavior”. The “frequency of object pickup” value in data set [4] (20 mg/kg compared to 2 mg/kg, p=0.10445, FIG. 12) is “greater frequency of picking up objects”. Moreover, the “locomotor activity on the second curiosity test” value in data set [4] (20 mg/kg, 4 h after administration) is “increased locomotor activity”. Besides, the “object contact duration compared to controls” value in data set [4] (20 mg/kg, especially on the second test, FIG. 13) was “increased contact”. Also, in data set [4] (20 mg/kg, manifested by locomotor activity on second curiosity test and night time activity), the duration of action result was “longest duration of action”. Moreover, in data set [4] (20 mg/kg, secondary analysis control vs high dose, interaction p=0.098076, FIG. 11), the “change of inactivity over the two tests” value is reported as “decreased over the two tests”. The “change of object sniff frequency over the two tests” value in data set [4] (20 mg/kg, secondary analysis, interaction p=0.061260, FIG. 16) is “object sniff frequency increased over the two tests”. Moreover, the “locomotor activity on first and second test” value in data set [4] (20 mg/kg, tests 1 h and 4 h after administration, FIG. 8) is given as “activity was increased on both tests”. Besides, the “effect on most behaviors in the exploratory behavior test” value in data set [4] (2, 6 and 20 mg/kg) is “did not significantly affect most behaviors”. For the same molecule, the “exploration (summary of exploratory behavior test)” value in data set [4] (setting [6]) is “generally increased; also recorded: dose-dependent trend towards increased exploration”. Moreover, in data set [4] (control vs 20 mg/kg only, p=0.086315), the “rearing frequency, dose effect, secondary analysis” value is given as “marginally significant effect of dose”. Moreover, the “locomotor activity, dose effect (ANOVA)” value in data set [4] (control, 2, 6, 20 mg/kg) is on record as “not significant”. In data set [4] (control, 2, 6, 20 mg/kg, FIG. 9), the “urination frequency, effect of treatment” value was “no effects of treatment were found”. The “rearing frequency, dose effect (ANOVA)” value in data set [4] (control, 2, 6, 20 mg/kg, p=0.000846) is given as “significant dose effect”. The “object contact duration, dose effect (ANOVA)” value in data set [4] (control, 2, 6, 20 mg/kg, p=0.001384) is on record as “significant dose effect”. Moreover, in data set [4] (control, 2, 6, 20 mg/kg, p=0.056856), the “object sniff frequency, dose effect (ANOVA)” value was “marginally significant effect of dose”. Further, in data set [4] (control, 2, 6, 20 mg/kg, p=0.079968), the “object pick-up, dose effect (ANOVA)” value is on record as “marginally significant effect of dose”. In addition, the “rearing frequency, controls versus dose group” value was “controls showing significantly less rearing” in data set [4] (high dose group, p=0.025826) and “controls showing significantly less rearing” in data set [4] (low dose group, p=0.0258). Also, in data set [5], the behavioral toxicity result is reported as “nor were there other indications of behavioral toxicity”. Moreover, the stereotypical behavior result in data set [5] is on record as “None of the dogs showed any stereotypical behavior”. For the same molecule, the abnormal behavioral response result in data set [5] (dihydrochloride) was “None of these results, however, is indicative of an abnormal behavioral response; also recorded: does not cause any obvious abnormal behavioral responses”.
